Measured values published in patent publication US8372408B2, “Use of Phaeodactylum algae extract for depigmenting the skin” (LVMH Recherche, priority 2007, dated 2013).
Residues, ends and D or L forms follow the SMILES beside them. *: point of attachment. Cbz = O=C(OCc1ccccc1)*

Experiments:
[1] = biological target: T1, proteasome (trypsin-like activity) of MNT1 cells (Homo sapiens, UniProt Q99436); experiment: Proteasome LSTR (trypsin-like) activity assay on lyzates of treated MNT1 cells; assay type: cell-based; conditions: for Proteasome activity at 72 hours, Trypsin-like: MNT1 cells lyzed 72 hours after treatment, palmitic or linoleic acid 25 μM, Phaeodactylum 5 μg/ml, Mg132 120 nM where stated
T1 construct: introduce in duplicate a fixed volume of cell lyzate; endogenous in cells; host or cells: MNT1 human melanocyte line (lysate)
T1 sequence (Q99436 44-277): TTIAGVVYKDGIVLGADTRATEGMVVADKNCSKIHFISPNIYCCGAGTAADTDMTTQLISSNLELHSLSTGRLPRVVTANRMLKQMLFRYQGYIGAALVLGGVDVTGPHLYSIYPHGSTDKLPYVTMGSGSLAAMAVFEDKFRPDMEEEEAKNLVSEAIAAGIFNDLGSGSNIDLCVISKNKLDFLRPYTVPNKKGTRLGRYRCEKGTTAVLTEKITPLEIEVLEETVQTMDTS
Method: 2.1 Treatment of MNT1 Cells (Human Melanocyte Cell Lines) in Order to Assay the Proteasome and Tyrosinase Activities MNT1, 10^6 cells/dish 35 mm in diameter, in triplicate
Treatment on D1 • Linoleic acid 25 μM • Palmitic acid 25 μM • Phaeodactylum 5 μg/ml +1% BSA+Vitamin E 50 μM+Vitamin C 1 mM • Linoleic acid 25 μM • Palmitic acid 25 μM • Phaeodactylum 5 μg/ml Stirring with a magnetic bar at 37° C. for 1 hour • 2nd treatment on D4 +Cycloheximide 1 μg/ml (protein synthesis inhibitor)
+120 nM Mg132 for the assay of the tyrosinase activity. • Preparation of the lyzates after 4 hours 2 rinses with PBS (phosphate-buffered saline)
On a bed of ice; recovery in 150 μl of lysis buffer by scraping.
Freezing at […]. • Protein assay via the Bradford method • Proteasome activity assay The cells are rinsed twice with PBS and each peptidase activity of the proteasome is then determined by using a fluorogenic peptide substrate specific for each of the activities, in the presence and in the absence of a specific proteasome inhibitor, MG 132 (Leu-Leu-Leucinal). The peptide substrate products are the following: Leu-Leu-Val-Tyr-amc (LLVY-amc) for the chymotrypsin-like activity, Leu-Leu-Glu-na (LLE-na) for the post-glutamic hydrolase activity and Leu-Ser-Thr-Arg-amc (LSTR-amc) for the trypsin-like activity. The principle of the assay consists in monitoring over time the increase in fluorescence due to the release of the fluorophores aminomethylcoumarin or β-naphthylamine from the fluorogenic peptides. […]
Proteasome (LSTR Activity (Trypsin-Like)) Nt Boc LSTR-MCA→Nt Boc LSTR+MCA fluorescent Reading on a spectrofluorimeter at an excitation wavelength of 350 nm and an emission wavelength of 440 nm. c.4—Assay of the LSTR Activity • In a 96-well plate, introduce in duplicate a fixed volume of cell lyzate (determined from the lowest protein concentration of the samples, which should correspond to 50 μg of protein) and make up to 100 μl with TRIS buffer. • Add 100 μl of LSTR-MCA substrate prediluted to 80 μM in the TRIS buffer (40 μM final). • In parallel, check that it is indeed the proteasome activity by testing the inhibitor Mg132. • Add to 50 μg of protein 10 μl of solution of Mg132 prediluted to 400 μM in the TRIS buffer (20 μM final) and make up to 100 μl with TRIS buffer. Next, add 100 μl of LSTR substrate prediluted to 80 μM in the TRIS buffer (40 μM final). • Take the spectrofluorimeter readings at an excitation wavelength of 355 nm and an emission wavelength of 460 nm at a gain of 30, every 2 minutes, for 30 minutes.
The raw results are expressed in F.U./min. […]
For the assay of the proteasome activities, the cells were lyzed at 72 hours after the cell treatment, and the protein concentration was determined.

[2] = tested on: tyrosinase of MNT-1 melanocytes; experiment: Measurement of the tyrosinase (dopa-oxidase) activity in lyzates of treated MNT1 cells; assay type: cell-based, human; conditions: for Tyrosinase activity at 72 hours: dopa-oxidase activity at 475 nm, MNT1 lyzed 72 hours after treatment, palmitic or linoleic acid 25 μM, Phaeodactylum 5 μg/ml, Mg132 120 nM where stated
Method: 2.1D: Measurement of the tyrosinase activity
The assay is based on measuring the dopa-oxidase activity of tyrosinase. The principle of the assay is based on the detection of dopachrome, which absorbs at 475 nm on FLUOstar (BMG)
Materials: • Lysis buffer • Substrate: L-DOPA (Sigma, D-9628, MW 197.2) at 10 mM in PBS, prepared extemporaneously due to the autoxidation of L-Dopa.
Human melanocytes in culture were treated with 25 μM of linoleic acid (±120 nM Mg132) or 25 μM of palmitic acid (±120 nM Mg132) or 5 μg/ml of Phaeodactylum (±120 nM Mg132) in MNT1 medium containing 1% BSA, 50 μM vitamin E and 1 mM vitamin C. The melanocytes were recovered and lyzed 72 hours after treatment. 50 μg of extract are then incubated with 1 mM of […] for one hour at 37° C. Measurement of the tyrosinase activity is performed at 475 nm every 2 minutes using a microplate reader thermostatically maintained at 37° C.
The Dopa-oxidase activity is obtained as OD/min/mg of protein. The blank is prepared with lysis buffer in the presence of L-DOPA.

trypsin-like peptidase activity of the proteasome, change in words ([1]; 72 hours after addition, MNT-1 melanocytes, FIG. 1C)	Proteasome activity at 72 hours, Trypsin-like [1]	Compound	tyrosinase activity, change in words ([2]; 72 hours after treatment of MNT-1 melanocytes, FIG. 5)	Tyrosinase activity at 72 hours [2]
increase and do so significantly	2848 ± 424 pmol/min/mg	CCCCC/C=C\C/C=C\CCCCCCCC(=O)O [Linoleic acid]	significant decrease	9.65 ± 2 OD/min
–	627 ± 282 pmol/min/mg	CC(C)C[C@@H](C=O)NC(=O)[C@H](CC(C)C)NC(=O)[C@H](CC(C)C)NC(=O)OCc1ccccc1 [Control + Mg132, Z-Leu-Leu-Leu-CHO] (Cbz-Leu-Leu-Leu-aldehyde)	–	18.35 ± 1.55 OD/min
–	1998 ± 261 pmol/min/mg	CCCCCCCCCCCCCCCC(=O)O [Palmitic acid]	–	18.75 ± 1.9 OD/min
